Legend:
CLL cells = test: Phospho-specific multiparametric flow cytometry of BCR signaling in CLL patient samples; type: cell-based, human
Protocol: (§1) Ramos cells were maintained and cultured using methods known in the art. Cells from CLL patients were obtained using methods known in the art.
(§2) The cell suspension was added drop-wise into media. […] Cells were incubated at 37° C. for 2 hours. […] Cells were aliquoted into wells.
(§3) Cells were washed twice. […] Cocktail • (i) CD3 pac blue=160 μl • (ii) CD4 APC=80 μl • (iii) CD8 PE Cy7=80 μl • (iv) CD5 PE Cy5=400 μl • (v) CD20 PerCP Cy5.5=800 μl • (vi) p-Erk=800 μl • (vii) p-BLNK=800 μl • (viii) p-Syk/ZAP70=800 μl • b. […] Each well received 100 μl of this cocktail mix.
Cells were prepared and stained as described above.

[1] = test system: blood B cells from healthy donors
Protocol: BCR cross-linking and preparation for staining: Cells were thawed at 37° C. in a water bath until partially thawed (˜50%). Cells were thawed into 5% FBS/RPMI at room temperature. The cell suspension was added drop-wise into media. Cells were centrifuged at 900 RPM for 10 minutes with no brake. The supernatants were decanted and pellets resuspended in 25 milliliters (ml) of media. Cells were re-centrifuged at 900 RPM for 10 minutes, decanted again and resuspended in 5 ml of 1% FBS/RPMI. Cells were counted with a hemocytometer using trypan blue staining. The concentration of the cells was adjusted as necessary to reduce crowding. Cells were incubated at 37° C. for 2 hours. The final cell concentration, including additives and reagents (e.g. stimulant, Fab fragment, H2O2, aqua, etc.) was 1.6 million/ml. Cells were aliquoted into wells. […]
Analysis by Flow Cytometry: Between 10,000 and 100,000 un-gated events were collected for each sample on the BD LSR II flow cytometry machine. The fluorescent anti-bodies directed to extra-cellular markers (i.e. CD3, CD4, CD8, CD5 and CD20) were used to mark the cells and a hierarchical gating strategy was used to identify the B-Cells and mature B-Cell population among the recorded events as described below: • a. […] All the recorded events were also marked by the following intra-cellular markers p-Erk, p-Syk/Zap70, and p-BLNK. […]

Ramos cells = test: Phospho-specific multiparametric flow cytometry of BCR signaling in Ramos cells; type: cell-based; settings: FIG. 1, fluorescence above autofluorescence and background
Protocol: as §1, §2, §3

[2] = CD20+/CD5+ cell population of CLL samples, kinetics

Row | SMILES | PLCγ2 phosphorylation (CLL cells; [2]) | phosphorylation of rpS6 (CLL cells; [2]) | levels of phosphorylated p72SYK/p70ZAP, ERK1/2, BLNK, and PLCγ2 (CLL cells; CLL cells of some patients, independent of surface F(ab)2anti-μ ligation) | activation of Erk and Syk (CLL cells; CLL samples, inhibition of phosphatases, FIG. 6) | tonic BCR signaling revealed by inhibition of phosphatases (CLL cells; other CLL samples, FIG. 10) | responsiveness (phosphorylated p72SYK/p70ZAP, ERK1/2, BLNK, PLCγ2) (CLL cells; other CLL-B cells, even in the presence of F(ab)2anti-μ) | phosphorylation of p72SYK/p70ZAP, ERK1/2, BLNK, PLCγ2 ([1]; blood B cells from healthy donors) | activation of signaling post BCR ([1]; normal B cells, H2O2 by itself, FIG. 7) | activation of p-Erk and p-Syk/pZap70 (Ramos cells) | activation of p-Erk across patients (CLL cells; CLL patient samples, regardless of ZAP70 expression (summary)) | p-Erk and p-Syk phosphorylation (CLL cells; CLL samples with low and high frequency of ZAP70, FIG. 5) | Erk and Syk phosphorylation (CLL cells; other CLL samples, FIG. 9) | activation of Erk (CLL cells; pheresed CLL samples, FIG. 3)
1 | OO [H2O2, hydrogen peroxide] | increased | attenuates | induced high-levels | activates | does not reveal strong tonic BCR signaling | significantly less responsive | failed to elicit a substantial increase | incapable of activating post BCR by itself |  |  |  |  | 
2 | CCCCCCCCCCCCCC(=O)O[C@@H]1[C@@H](C)[C@@]2(O)[C@@H](C=C(CO)C[C@]3(O)C(=O)C(C)=C[C@@H]23)[C@@H]2C(C)(C)[C@]12OC(C)=O [PMA] |  |  |  |  |  |  |  |  | activates | comparable in all patients | modest | modest | activates

From patent publication US9182385B2, “Methods for diagnosis, prognosis and methods of treatment” (NODALITY, INC., priority 2007, dated 2015)
